Assay results from patent EP3057951B1, “METHYLENE LINKED QUINOLINYL MODULATORS OF ROR-GAMMA-T” (Janssen Pharmaceutica NV, priority 2013, dated 2015).
pIC50, pKd: −log10 of the molar value. Where a name gives a salt, the structure may show the parent alone. Read-outs that look alike come from different tables or passages of the source.

Key:
[1] = molecular target: T1, wild type human RORγt ligand binding domain (RORyt LBD) (Homo sapiens, UniProt P51449); assay: RORγt ThermoFluor assay (thermal shift, binding affinity KD)
T1 construct: His-tag (N); TurboTEV protease cleavage site (ENLYFQG) (N); made in house; host or cells: E. coli (pHIS1, modified pET vector)
T1 sequence (P51449 258-518): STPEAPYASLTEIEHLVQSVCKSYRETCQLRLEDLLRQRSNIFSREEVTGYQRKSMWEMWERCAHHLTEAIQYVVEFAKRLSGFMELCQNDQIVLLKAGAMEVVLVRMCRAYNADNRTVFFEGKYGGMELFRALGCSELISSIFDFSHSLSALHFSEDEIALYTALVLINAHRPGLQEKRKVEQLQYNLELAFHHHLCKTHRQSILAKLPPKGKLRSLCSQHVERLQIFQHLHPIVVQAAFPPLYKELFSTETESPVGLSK

[2] = molecular target: T2, wild type human RORγt LBD (Homo sapiens, UniProt P51449); assay: RORγt (LBD) Reporter Assay (GAL4-luciferase, HEK293T cells); format: cell-based; conditions: for inhibition at 6 µM: HEK-293T, read-out: RORγt (LBD) Reporter Assay, % inhibition @ 6 µM, 6 µM compound concentration; for RORγt (LBD) Reporter Assay, % inhibition @ 6 µM: 6 µM compound concentration
T2 construct: expressed in transfected cells; host or cells: HEK293T
T2 sequence (P51449 258-518): T1 sequence (P51449 258-518)

[3] = HEK293T cells, value after the comma with ∼, > or < could not be included in the average

Row | SMILES | pKd [1] | pIC50 [2, 3] | inhibition at 6 µM [2] [%] | RORγt (LBD) Reporter Assay, % inhibition @ 6 µM ([2]; HEK293T cells) [%] | pIC50 ([2]; HEK293T cells) | RORγt (LBD) Reporter Assay, % inhibition @ 6 µM [2] [%] | inhibition at 6 µM ([2]; HEK293T cells) [%]
1 | Cn1cncc1C(O)(c1ccc(C(F)(F)F)nc1)c1ccc2nc(C(F)(F)F)c(Cc3ccccc3)c(C#N)c2c1 (stereo not drawn) [Example 108a, 3-Benzyl-6-(hydroxy(1-methyl-1H-imidazol-5-yl)(6-(trifluoromethyl)pyridin-3-yl)methyl)-2-(trifluoromethyl)quinoline-4-carbonitrile•TFA] | 8.36 | 7.52 | 90 | – | – | – | –
2 | Cn1cncc1C(O)(c1ccc(Cl)cc1)c1ccc2nc(C(F)(F)F)c(Cc3ccccc3)c(Cl)c2c1 (stereo not drawn) [Example 100, (3-benzyl-4-chloro-2-(trifluoromethyl)quinolin-6-yl)(4-chlorophenyl)(1-methyl-1H-imidazol-5-yl)methanol•TFA] | 7.60 | 6.66 | 78 | – | – | – | –
3 | Cc1ccc(C(O)(c2ccc3nc(Cl)c(Cc4ccc(C(F)(F)F)cc4)c(NC4CC4)c3c2)c2cnnn2C)c(C)n1 (single isomer, unassigned) [Example 144b, {2-Chloro-4-(cyclopropylamino)-3-[4-(trifluoromethyl)benzyl]quinolin-6-yl}(2,6-dimethylpyridin-3-yl)(1-methyl-1H-1,2,3-triazol-5-yl)methanol] | 5.64 | – | – | 69 | ~5.43 | – | –
4 | COc1nc2ccc(C(O)(c3ccccc3)C3CCN(C(C)=O)CC3)cc2c(Cl)c1Cc1ccc(-n2ccnc2)cc1 (stereo not drawn) [Example 16a, 1-(4-((3-(4-(1H-Imidazol-1-yl)benzyl)4-chloro-2-metboxyquinolin-6-yl)(hydroxy)(phenyl)methyl)piperidin-1-yl)ethanone] | 8.08 | 8.01 | 101 | – | – | – | –
5 | COc1ccc(C(O)(c2cccnc2)c2ccc3nc(OC)c(Cc4ccc(-n5cccn5)cc4)c(Cl)c3c2)cc1 (stereo not drawn) [Example 63] | 7.17 | 6.85 | 99 | – | – | – | –
6 | COc1nc2ccc(C(N)(c3ccc(C(F)(F)F)nc3)c3cncn3C)cc2c(Cl)c1Cc1cc2ccccc2s1 (single isomer, unassigned) [Example 71c, (3-(Benzo[b]thiophen-2-ylmethyl)-4-chloro-2-methoxyquinolin-6-yl)(1-methyl-1H-imidazol-5-yl)(6-(trifluoromethyl)pyridin-3-yl)methanamine] | 6.57 | 6.08 | – | – | – | 94 | –
7 | COc1nc2ccc(C(O)(c3ccc(F)cc3)c3cccnc3)cc2c(Cl)c1Cc1ccc(-n2cccn2)cc1 (single isomer, unassigned) [Example 158b, (3-(4-(1H-Pyrazol-1-yl)benzyl)-4-chloro-2-methoxyquinolin-6-yl)(4-fluorophenyl)(pyridin-3-yl)methanol] | 6.85 | – | – | – | 6.77 | – | 107
8 | Cn1cncc1C(O)(c1ccc(C(F)(F)F)nc1)c1ccc2nc(N3CC(O)C3)c(Cc3ccc(-n4cccn4)cc3)c(Cl)c2c1 (single isomer, unassigned) [Example 134c, 1-(4-Chloro-6-{hydroxy(1-methyl-1H-imidazol-5-yl)[6-(trifluoromethyl)pyridin-3-yl]methyl}-3-[4-(1H-pyrazol-1-yl)benzyl]quinolin-2-yl)azetidin-3-ol] | 5.92 | – | – | 96 | 5.96 | – | –
9 | Cn1cc(-c2nc3ccc(C(O)(c4ccc(C(F)(F)F)nc4)c4cncn4C)cc3c(C#N)c2Cc2ccccc2)cn1 (single isomer, unassigned) [Example 112c, 3-Benzyl-6-(hydroxy(1-methyl-1H-imidazol-5-yl)(6-(trifluoromethyl)pyridin-3-yl)methyl)-2-(1-methyl-1H-pyrazol-4-yl)quinoline-4-carbonitrile] | 4.89 | ~5.30 | – | – | – | 71 | –
10 | Cn1cc(-c2nc3ccc(C(O)(c4ccc(C(F)(F)F)nc4)c4cncn4C)cc3c(C#N)c2Cc2ccccc2)cn1 (stereo not drawn) [Example 112a, 3-Benzyl-6-(hydroxy(1-methyl-1H-imidazol-5-yl)(6-(trifluoromethyl)pyridin-3-yl)methyl)-2-(1-methyl-1H-pyrazol-4-yl)quinoline-4-carbonitrile•TFA] | 5.18 | 6.00 | 91 | – | – | – | –
11 | Cn1cncc1C(O)(c1ccc(C(F)(F)F)nc1)c1ccc2nc(C(F)(F)F)c(Cc3ccccc3)c(O)c2c1 (stereo not drawn) [Example 107, 3-Benzyl-6-(hydroxy(1-methyl-1H-imidazol-5-yl)(6-(trifluoromethyl)pyridin-3-yl)methyl)-2-(trifluoromethyl)quinolin-4-ol•TFA] | 5.47 | 5.25 | 57 | – | – | – | –
12 | COc1nc2ccc(C(O)(c3ccc(C)nc3C)c3cnnn3C)cc2c(Cl)c1Cc1ccc(-n2cccn2)cc1 (single isomer, unassigned) [Example 17c, (3-(4-(1H-Pyrazol-1-yl)benzyl)-4-chloro-2-methoxyquinolin-6-yl)(2,6-dimethylpyridin-3-yl)(1-methyl-1H-1,2,3-triazol-5-yl)methanol] | 9.54 | 8.05 | – | – | – | 101 | –
13 | COc1nc2ccc(C(O)(c3cc(C)nc(C)c3)c3cnnn3C)cc2c(Cl)c1Cc1ccc(C(F)(F)F)cc1 (single isomer, unassigned) [Example 84c, (4-Chloro-2-methoxy-3-(4-(trifluoromethyl)benzyl)quinolin-6-yl)(2,6-dimethylpyridin-4-yl)(1-methyl-1H-1,2,3-triazol-5-yl)methanol] | 11.52 | 8.22 | – | – | – | 100 | –
14 | COc1nc2ccc(C(O)(c3ncccn3)c3cncn3C)cc2c(Cl)c1Cc1ccc(-n2cccn2)cc1 (single isomer, unassigned) [Example 131c, {4-Chloro-2-methoxy-3-[4-(1H-pyrazol-1-yl)benzyl]quinolin-6-yl}(1-methyl-1H-imidazol-5-yl)pyrimidin-2-ylmethanol] | 6.66 | – | – | 100 | 5.80 | – | –
15 | COc1nc2ccc(C(O)(c3cnnn3C)C3CCN(C(C)=O)CC3)cc2c(Cl)c1Cc1ccc(C(F)(F)F)cc1 (single isomer, unassigned) [Example 74b, 1-(4-((4-Chloro-2-methoxy-3-(4-(trifluoromethyl)benzyl)quinolin-6-yl)(hydroxy)(1-methyl-1H-1,2,3-triazol-5-yl)methyl)piperidin-1-yl)ethanone] | 8.30 | 7.82 | 102 | – | – | – | –
16 | CC(=O)N1CCC(C(O)(c2ccc(C(F)(F)F)nc2)c2cc(C)c3nc(C#N)c(Cc4ccc(-n5cccn5)cc4)c(C#N)c3c2)CC1 (single isomer, unassigned) [Example 79c, 3-(4-(1H-Pyrazol-1-yl)benzyl)-6-((1-acetylpiperidin-4-yl)(hydroxy)(6(trifluoromethyl)pyridin-3-yl)methyl)-8-methylquinoline-2,4-dicarbonitrile] | 7.35 | 6.64 | – | – | – | 103 | –
17 | CC(=O)N1CCC(C(O)(c2ccc(F)cc2)c2ccc3nc(OC(F)F)c(Cc4cncnc4)c(OC(F)F)c3c2)CC1 (stereo not drawn) [Example 72, 1-(4-((2,4-bis(Difluoromethoxy)-3-(pyrimidin-5-ylmethyl)quinolin-6-yl)(4-fluorophenyl)(hydroxy)methyl)piperidin-1-yl)ethanone] | 5.96 | 5.92 | 53 | – | – | – | –
18 | Cc1ccc(C(O)(c2ccc3nc(Cl)c(Cc4ccc(C(F)(F)F)cc4)c(NC4CC4)c3c2)c2cnnn2C)c(C)n1 (single isomer, unassigned) [Example 144c, {2-Chloro-4-(cyclopropylamino)-3-[4-(trifluoromethyl)benzyl]quinolin-6-yl}(2,6-dimethylpyridin-3-yl)(1-methyl-1H-1,2,3-triazol-5-yl)methanol] | 8.60 | – | – | 99 | 7.47 | – | –
